Consider 1 substance from publication PMC5145181, “Structural Mapping and Functional Characterization of Zebrafish Class B G-Protein Coupled Receptor (GPCR) with Dual Ligand Selectivity towards GLP-1 and Glucagon” (PLoS ONE, 2016).

Test [1] has as its system zfGPCR (dual zfGLP-1R/GCGR). The test can be described thus: Intracellular cAMP in COS-7 cells expressing recombinant zfGPCR. The following applies: 20 min at 37°C, pH 7.4, 1 mM 1-methyl-3-isobutylxanthine, enzyme immunoassay; n = 9 zfGLP-1, n = 5 hGLP-1, zf glucagon, h glucagon, n = 3 exendin-4, n = 6 zfGLP-2. 95% CI: zfGLP-1 0.24–0.80; hGLP-1 0.65–1.63; zf glucagon 0.20–2.9; h glucagon 0.18–1.63; exendin-4 0.07–0.46; zfGLP-2 16.8–72.6. In kind it is cell-based, zebrafish (Danio rerio). As for the experimental part: The ability of different peptides to stimulate the increase in intracellular cAMP levels following their binding to the recombinant zfGPCR transiently expressed in COS-7 cells was measured using methods that we developed for non-mammalian G-protein coupled receptors. In brief, COS-7 cells were grown to confluence in 100-mm plates at 37°C and transfected with the pcDNA3 vector containing the recombinant zfGPCR using the TransFast transfection reagent (Promega, Madison, WI) at a […] of plasmid DNA (25 ug) to transfection reagent (75 μL). After 24 h cells were trypsynized and transferred to 24-well plates (Biocore, Becton-Dickinson, Franklin Lakes, NJ). Peptides (pM-μM) were added 24–48 h later. Cells were equilibrated prior to the addition of peptides with the assay buffer (DMEM, 0.5% BSA, 20mM HEPES, 1mM 1-methyl-3-isobutylxanthine, 0.1mM phenylmethylsulfonyl fluoride, pH 7.4) for 20 min at 37°C. Each peptide concentration was added in triplicate wells for 20 min at 37°C. cAMP dose-response curves for each tested peptide were obtained in a single 24-well plate. In all experiments, forskolin (100 nM) (Sigma-Aldrich, St.Louis, MO) was added as a positive control, also in triplicate wells, in the same 24-well plate as the tested peptide. After incubation, the media was removed and cells were lysed by the addition of cold ethanol (1 mL per well). Cell debris was pelleted by centrifugation (10,000 g) for 10-min, and supernatants were dried using a vacuum concentrator. Samples were resuspended in an assay buffer provided by the manufacturer and cAMP levels were quantified by the enzyme immunoassay kit (Cayman Chemicals, Ann Arbor, MI) according to the manufacturer’s instructions. The basal concentration of cAMP (in the absence of peptides) was taken as 1.00, and was in the range of 9–16 pmol/well. Results are presented as a fold-increase over basal.
Results were plotted by the Origin 9 software (OriginLab), and EC50 values were calculated by Prism 4 software as described below.
Results from the functional experiments with recombinant zfGPCR transiently expressed in COS-7 cells were analyzed by the Prism 4 software using a four-parameter logistic sigmoidal curve fit model. Data points represent mean +/- SEM.
They are shown together with the 95% confidence intervals (CIs).
Comparison of EC50 values calculated from the zfGLP-1 cAMP dose-response curve with the EC50 calculated from the cAMP dose-response curves for each of the tested peptides were performed by the F-test from the Prism 4 software which compares the fitted mid-point (EC50) from the data sets of the two dose-response curves under comparison. Conditions of analysis were as follows: (i) in the normalization step y = 0% was set to be 1 (the basal cAMP concentration taken as 1); y = 100% was set to be the largest value in each data set; (ii) constrained curve-fit parameters were set to be equal to 0.00 on the bottom, 100 on top; (iii) EC50 was not constrained; (iv) the selected option in the non-linear regression curve fit was intended on finding out whether the best-fit of a selected parameter (EC50) differs between two sets.

In test [2] the test system is GLP-1R. The note with it: cited from earlier work. The source says: Receptors for GLP-1 (GLP-1R) and glucagon (GCGR) belong to the class B GPCRs that mediate the physiological effects of the peptides within the glucagon-secretin peptide family. Their structures are characterized by large amino terminal extracellular domains which are about 140 amino acids long and an intracellular core consisting of a cytoplasmic domain and seven transmembrane helices (7TMs) connected through three extracellular and three intracellular loops.

In general, EC50 refers to the concentration at which the effect is half-maximal. In the case of “exendin-4: peptide exclusively found in the saliva of a lizard; agonist of GLP-1R; purchased from Bachem”, the EC50 in test [1] worked out at 0.18 nM. In test [2], the “stimulation of intracellular cAMP, GLP-1 vs exendin-4” value is given as “to a similar degree”.
